Source: ChEMBL document CHEMBL4732113, “Exploiting the tolerant region I of the non-nucleoside reverse transcriptase inhibitor (NNRTI) binding pocket. Part 2: Discovery of diarylpyrimidine derivatives as potent HIV-1 NNRTIs with high Fsp values and favorable drug-like properties” (Eur J Med Chem, 2021)

Experiments:
[1] = tested on: Human immunodeficiency virus 1; assay: Antiviral activity against HIV1 harboring Y188L mutant infected in human MT4 cells assessed as reduction in virus-induced cytopathic effect by MTT assay; assay type: functional, organism-based; conditions: Human immunodeficiency virus 1, MT4
[2] = tested on: Human immunodeficiency virus 1; assay: Antiviral activity against HIV1 harboring Y181C mutant infected in human MT4 cells assessed as reduction in virus-induced cytopathic effect by MTT assay; assay type: functional, organism-based; conditions: Human immunodeficiency virus 1, MT4
[3] = (§1) Cytotoxicity against human MT4 cells assessed as reduction in cell viability by MTT assay; assay type: cell-based; conditions: MT4 cells
[4] = tested on: Human immunodeficiency virus 1; assay: Antiviral activity against HIV1 RES056 harboring K103N/Y181C double mutant infected in human MT4 cells assessed as reduction in virus-induced cytopathic effect by MTT assay; assay type: functional, organism-based
[5] = target: Human immunodeficiency virus type 1 reverse transcriptase (Human immunodeficiency virus 1, UniProt Q72547); assay: Inhibition of HIV1 reverse transcriptase assessed as reduction in biotin-dUTP incorporation into template incubated for 1 hr by ELISA
[6] = tested on: Human immunodeficiency virus 1; assay: Antiviral activity against HIV1 harboring L100I mutant infected in human MT4 cells assessed as reduction in virus-induced cytopathic effect by MTT assay; assay type: functional, organism-based; conditions: Human immunodeficiency virus 1, MT4
[7] = tested on: Human immunodeficiency virus 1; assay: Antiviral activity against HIV1 harboring F227L/V106A mutant infected in human MT4 cells assessed as reduction in virus-induced cytopathic effect by MTT assay; assay type: functional, organism-based; conditions: Human immunodeficiency virus 1, MT4
[8] = tested on: Human immunodeficiency virus 1; assay: Antiviral activity against HIV1 3B infected in human MT4 cells assessed as reduction in virus-induced cytopathic effect by MTT assay; assay type: functional, organism-based; conditions: Human immunodeficiency virus 1, 3B
[9] = Selectivity index, ratio of CC50 for human MT4 cells to EC50 for antiviral activity against HIV HIV1 RES056 harboring K103N/Y181C double mutant infected in human MT4 cells; assay type: toxicity, cell-based; conditions: read-out: Ratio CC50/EC50
[10] = tested on: Human immunodeficiency virus 1; assay: Antiviral activity against HIV1 harboring E138K mutant infected in human MT4 cells assessed as reduction in virus-induced cytopathic effect by MTT assay; assay type: functional, organism-based; conditions: Human immunodeficiency virus 1, MT4
[11] = Selectivity index, ratio of CC50 for human MT4 cells to EC50 for antiviral activity against HIV 3B infected in human MT4 cells; assay type: toxicity, cell-based; conditions: read-out: Ratio CC50/EC50
[12] = tested on: Human immunodeficiency virus 1; assay: Antiviral activity against HIV1 harboring K103N mutant infected in human MT4 cells assessed as reduction in virus-induced cytopathic effect by MTT assay; assay type: functional, organism-based; conditions: Human immunodeficiency virus 1, MT4
[13] = tested on: Human immunodeficiency virus 1; assay: Potency index, ratio of etravirine EC50 to test compound EC50 for antiviral activity against HIV1 3B infected in human MT4 cells assessed as reduction in virus-induced cytopathic effect by MTT assay; assay type: functional
MT4 = assay: as §1; assay type: cell-based; conditions: mt4
[14] = tested on: Human immunodeficiency virus 1; assay: Potency index, ratio of etravirine EC50 to test compound EC50 for antiviral activity against HIV1 harboring K103N mutant infected in human MT4 cells assessed as reduction in virus-induced cytopathic effect by MTT assay; assay type: functional
[15] = Human immunodeficiency virus 1, RES056, MT4, read-out: EC50

| SMILES | EC50 [1] [nM] | EC50 [2] [nM] | CC50 [3] [nM] | EC50 [4, 15] [nM] | IC50 [5] [nM] | EC50 [6] [nM] | EC50 [7] [nM] | EC50 ([8]; read-out: EC50) [nM] | EC50 ([8]; read-out: pEC50 (converted)) [nM] | selectivity ratio [9] | EC50 [10] [nM] | selectivity ratio [11] | EC50 [12] [nM] | Ratio EC50 [13] | CC50 (MT4) | EC50 ([4]; mt4) | Ratio EC50 [14] |
| --- | --- | --- | --- | --- | --- | --- | --- | --- | --- | --- | --- | --- | --- | --- | --- | --- | --- |
| C=CC(=O)N1CCN(Cc2ccc(Nc3nccc(Oc4c(C)cc(/C=C/C#N)cc4C)n3)cc2)CC1 | > 5210 | 84 | 5210 | > 5210 | 71 | 34 | 870 | 5.7 | 5.75 | < 1 | 41 | 909 | 10 |  |  |  |  |
| Cc1cc(C#N)cc(C)c1Oc1ccnc(Nc2ccc(CN3CCCN(S(C)(=O)=O)CC3)cc2)n1 |  |  | 7850 | > 7850 |  |  |  | 79 |  | < 1 |  | 100 |  |  |  |  |  |
| Cc1cc(/C=C/C#N)cc(C)c1Oc1ccnc(Nc2ccc(CN3CCSCC3)cc2)n1 | 4280 | 99 | 14900 | 3560 | 62 | 24 | 280 | 4.7 | 4.68 | 4 | 25 | 3160 | 4.4 |  |  |  |  |
| Cc1cc(/C=C/C#N)cc(C)c1Oc1ccnc(Nc2ccc(CN3CC[S+]([O-])CC3)cc2)n1 | 5200 | 67 | 23400 | 2680 | 51 | 20 | 350 | 2.4 | 2.4 | 9 | 9.8 | 9860 | 3.4 | 2 |  |  |  |
| C=CC(=O)N1CCN(Cc2ccc(Nc3nccc(Oc4c(C)cc(C#N)cc4C)n3)cc2)CC1 |  |  | 7580 | > 7580 | 160 |  |  | 56 | 56.2 | < 1 |  | 134 |  |  |  |  |  |
| Cc1cc(/C=C/C#N)cc(C)c1Oc1ccnc(Nc2ccc(CN3CCCN(S(C)(=O)=O)CC3)cc2)n1 |  |  | 17400 | > 17400 |  |  |  | 27 |  | < 1 |  | 644 |  |  |  |  |  |
| Cc1cc(C#N)cc(C)c1Oc1ccnc(Nc2ccc(CN3CCSCC3)cc2)n1 |  |  | 24000 | > 24000 |  |  |  | 28 |  | < 1 |  | 847 |  |  |  |  |  |
| CCS(=O)(=O)N1CCN(Cc2ccc(Nc3nccc(Oc4c(C)cc(/C=C/C#N)cc4C)n3)cc2)CC1 | 1280 | 46 | 4600 | 980 | 52 | 15 | 200 | 5.7 | 5.75 | 5 | 17 | 810 | 4.9 |  |  |  |  |
| Cc1cc(C#N)cc(C)c1Oc1ccnc(Nc2ccc(CN3CCCN(S(=O)(=O)C4CC4)CC3)cc2)n1 |  |  |  |  | 200 |  |  | 100 | 100 |  |  |  |  |  | Not Active | Not Active |  |
| Cc1cc(/C=C/C#N)cc(C)c1Oc1ccnc(Nc2ccc(CN3CCCN(S(=O)(=O)N(C)C)CC3)cc2)n1 |  |  | 3900 | > 3900 | 94 |  |  | 21 | 20.9 | < 1 |  | 182 |  |  |  |  |  |
| Cc1cc(/C=C/C#N)cc(C)c1Oc1ccnc(Nc2ccc(CN3CCN(S(=O)(=O)C(C)C)CC3)cc2)n1 | > 3810 | 69 | 3810 | > 3810 |  | 25 | 230 | 5.6 |  | < 1 | 36 | 685 | 8.5 |  |  |  |  |
| Cc1cc(C#N)cc(C)c1Oc1ccnc(Nc2ccc(CN3CCN(S(=O)(=O)C(C)C)CC3)cc2)n1 |  |  | 4540 | > 4540 | 73 |  |  | 30 | 30.2 | < 1 |  | 152 |  |  |  |  |  |
| Cc1cc(C#N)cc(C)c1Oc1ccnc(Nc2ccc(CN3CCN(S(=O)(=O)N(C)C)CC3)cc2)n1 |  |  | 4460 | > 4460 |  |  |  | 48 |  | < 1 |  | 93 |  |  |  |  |  |
| CCS(=O)(=O)N1CCN(Cc2ccc(Nc3nccc(Oc4c(C)cc(C#N)cc4C)n3)cc2)CC1 |  |  | 5240 | > 5240 |  |  |  | 17 |  | < 1 |  | 310 |  |  |  |  |  |
| Cc1cc(C#N)cc(C)c1Oc1ccnc(Nc2ccc(CN3CC[S+]([O-])CC3)cc2)n1 |  |  | 54700 | > 54700 |  |  |  | 17 |  | < 1 |  | 3250 |  |  |  |  |  |
| Cc1cc(C#N)cc(C)c1Oc1ccnc(Nc2ccc(CN3CCS(=O)(=O)CC3)cc2)n1 |  |  | 53200 | > 53200 | 78 |  |  | 14 | 14.1 | < 1 |  | 3850 |  |  |  |  |  |
| Cc1cc(C#N)cc(C)c1Oc1ccnc(Nc2ccc(CN3CCCN(S(=O)(=O)N(C)C)CC3)cc2)n1 |  |  | 4190 | > 4190 |  |  |  | 160 |  | < 1 |  | 26 |  |  |  |  |  |
| Cc1cc(/C=C/C#N)cc(C)c1Oc1ccnc(Nc2ccc(CN3CCCN(S(=O)(=O)C(C)C)CC3)cc2)n1 |  |  | 4640 | > 4640 |  |  |  | 19 |  | < 1 |  | 244 |  |  |  |  |  |
| Cc1cc(/C=C/C#N)cc(C)c1Oc1ccnc(Nc2ccc(CN3CCN(S(=O)(=O)N(C)C)CC3)cc2)n1 | > 3070 | 92 | 3070 | > 3070 |  | 29 | > 3070 | 4.5 |  | < 1 | 34 | 677 | 11 |  |  |  |  |
| Cc1cc(/C=C/C#N)cc(C)c1Oc1ccnc(Nc2ccc(CN3CCS(=O)(=O)CC3)cc2)n1 | 3090 | 33 | 18500 | 1080 | 34 | 11 | 91 | 2.1 | 2.09 | 17 | 7.5 | 8640 | 1.9 | 2 |  |  | 1.7 |
| Cc1cc(C#N)cc(C)c1Oc1ccnc(Nc2ccc(CN3CCN(S(=O)(=O)C4CC4)CC3)cc2)n1 |  |  | 4430 | > 4430 |  |  |  | 25 |  | < 1 |  | 174 |  |  |  |  |  |
| Cc1cc(/C=C/C#N)cc(C)c1Oc1ccnc(Nc2ccc(CN3CCN(S(=O)(=O)C4CC4)CC3)cc2)n1 | > 4350 | 64 | 4350 | > 4350 |  | 17 | 360 | 6.1 |  | < 1 | 31 | 717 | 6.8 |  |  |  |  |
| O=C1Nc2ccc(Cl)cc2[C@@](C#CC2CC2)(C(F)(F)F)O1 [EFAVIRENZ] | 260 | 5 | > 6340 | 340 |  |  |  | 2.8 | 2.82 |  |  |  |  |  |  |  |  |
| Cc1cc(C#N)cc(C)c1Oc1nc(Nc2ccc(C#N)cc2)nc(N)c1Br [ETRAVIRINE] | 19 | 15 | > 4590 | 61 |  | 8.3 | 26 | 4.2 | 4.17 |  | 9.8 |  |  |  |  |  |  |
| Nc1ccn([C@@H]2CS[C@H](CO)O2)c(=O)n1 [LAMIVUDINE] | 2710 | 3200 | > 87200 | 6830 |  | 1460 | 2360 | 6000 |  | > 13 | 6110 | > 15 | 2740 |  |  |  |  |
| Cc1ccnc2c1NC(=O)c1cccnc1N2C1CC1 [NEVIRAPINE] | 9070 | 5050 | > 15000 | > 15000 |  | 620 | 8040 | 150 |  |  | 170 |  |  |  |  |  |  |
| Cc1cn([C@H]2C[C@H](N=[N+]=[N-])[C@@H](CO)O2)c(=O)[nH]c1=O [ZIDOVUDINE] | 8.6 | 13 | > 7480 | 28 |  | 7.1 | 8.7 | 26 |  | > 267 | 36 | > 293 | 19 |  |  |  |  |
